From patent publication US20240269145A1, “USE OF INDOLE COMPOUND AS INHIBITORS OF FERROPTOSIS” (MITOIMMUNE THERAPEUTICS INC., priority 2023, published 2024)

How the values were obtained:
Type in all cases: cell-based
ARPE-19 = test: Cell death protection, LDH release after RSL3; settings: ARPE-19, RSL3 0.3 μM, 24 hours
Procedure: (§1) To confirm the protective effect on cardiac cells, adrenal medulla cells, renal fibroblasts, retinal epithelial cells, lung epithelial cells, renal proximal tubule epithelial cells, hippocampal neurons, and fibroblasts, 4×10^3 to 1.2×10^4 cells of each cell type were dispensed into 96-well plates and cultured for 18 to 24 hours. Each well was treated with the example compound, which was diluted so that the final concentration became 0.001, 0.003, 0.01, 0.03, 0.1, 0.3, 1, 3, and 10 μM, and culture was performed for 15 to 20 minutes. […] To confirm the cell protecting effect of the example compounds, a cytotoxicity LDH assay kit [Dojindo; CK12] was used to measure the level of extracellular secretion of lactate dehydrogenase (LDH). Briefly, at the time point when the 24-hour treatment of each cell type with RSL3 ended, 70 μL of each supernatant from cell culture medium was taken and transferred to a new 96-well plate. After adding 70 μL/well (the same amount as the sample) of the assay buffer included in the kit, the resulting mixture was wrapped with foil and allowed to react at room temperature for 15 to 20 minutes. After observing the color change of the sample, 35 μL/well of a stop solution was added, and the absorbance value at 490 nm was measured using an iD3 spectrophotometer to calculate the EC50 value.
(§2) Table 3. Effect of protecting cardiac cells, adrenal medulla cells, renal fibroblasts, retinal epithelial cells, lung epithelial cells, renal proximal tubule epithelial cells, hippocampal neurons, and fibroblasts against cell death induced by RSL3.

NRK-49F = test: Cell death protection, LDH release after RSL3; settings: RSL3 3 μM, 24 hours
Procedure: as §1, §2

HT-22 = test: Cell death protection, LDH release after RSL3; settings: HT-22, RSL3 0.3 μM, 24 hours
Procedure: as §1, §2

MLE-12 cells [1] = test: Mitochondrial ROS (MitoSOX) after RSL3; settings: MLE-12, 1 μM RSL3, 2 hours
Procedure: To confirm the protective effect against mitochondrial reactive oxygen species in lung epithelial cells, 2×10^5 MLE-12 cells were dispensed into each well of a 12-well plate and cultured for 18 to 24 hours. Each well was treated with Example Compound 1 and ferrostatin-1, which were diluted so that their final concentration became 0.01, 0.1, 1, and 10 μM, and culture was performed for 15 minutes. Afterwards, the cells were treated so that the final concentration of RSL3 became 1 μM, and cultured for 2 hours. To confirm the inhibitory effect against mitochondrial reactive oxygen species, MitoSOX™ mitochondrial superoxide indicators (mitochondrial oxidative stress indicator) (MitoSOX) [Invitrogen™; C6827] was used. According to the manufacturer's experimental method, MitoSOX was diluted in the cell culture medium so that the final concentration became 5 μM, and the cells were treated therewith and allowed to react for 30 minutes to perform fluorescent staining. The MLE-12 cells fluorescently stained with MitoSOX were detached from the 12-well plate using 0.25% Trypsin-EDTA and transferred to a microtube, and the fluorescence (excitation/absorption ˜396 nm/610 nm) was measured using BD FACSLyric™ to calculate the rate of change compared to the control group (RSL3 untreated group).

MLE-12 cells [2] = test: Cytosolic iron ion accumulation (FerroOrange, flow cytometry) after RSL3; settings: MLE-12, 1 μM RSL3, 8 hours
Procedure: To confirm the inhibitory effect against cytosolic iron ion accumulation in lung epithelial cells, 2×10^5 MLE-12 cells were dispensed into each well of a 12-well plate and cultured for 18 to 24 hours. Each well was treated with Example Compound 1 and ferrostatin-1, which were diluted so that their final concentration became 0.01, 0.1, 1, and 10 μM, and culture was performed for 15 minutes. Afterwards, the cells were treated so that the final concentration of RSL3 became 1 μM, and cultured for 8 hours. To confirm the inhibitory effect against cytosolic iron ion accumulation, FerroOrange [DOJINDO; F374] was used. According to the manufacturer's experimental method, FerroOrange was diluted in the cell culture medium so that the final concentration became 1 μM, and the cells were treated therewith and allowed to react for 30 minutes to perform fluorescent staining. The MLE-12 cells fluorescently stained with FerroOrange were detached from the 12-well plate using 0.25% Trypsin-EDTA and transferred to a microtube, and the fluorescence (excitation/absorption 580 nm/543 nm) was measured using BD FACSLyric™ to calculate the rate of change compared to the control group (RSL3 untreated group).

H9C2 cells = test: Cytosolic iron ion accumulation (FerroOrange, images) after erastin; settings: H9C2, erastin 1 μM, 7 hours; Example Compound 1 1 μM, DFO 10 or 100 μM
Procedure: To confirm the inhibitory effect against cytosolic iron ion accumulation in adrenal medulla cells and cardiac cells, 3×10^5 PC-12 cells and H9C2 cells were each dispensed into a 35 mm confocal dish and cultured for 18 to 36 hours. Each well was treated with the Example Compound 1, which was diluted so that the final concentration became 1 μM, and with DFO, which was diluted so that the final concentration became 10 µM and 100 μM, and culture was performed for 20 to 30 minutes. Afterwards, the PC-12 cells and H9C2 cells were each treated with RSL3 and erastin so that their final concentration became 0.3 µM and 1 μM, respectively, and cultured for 1 hour and 7 hours. To confirm the inhibitory effect against cytosolic iron ion accumulation, FerroOrange [DOJINDO; F374] was used. According to the manufacturer's experimental method, FerroOrange was diluted in the cell culture medium so that the final concentration became 1 μM, and the cells were treated therewith. […] The cells fluorescently stained with FerroOrange were observed using a fluorescence microscope [Carl Zeiss; Axio Observer 7] to investigate the change in fluorescence (excitation/absorption 580 nm/543 nm) compared to the control group (RSL3 and erastin untreated group).

| SMILES | EC50 (ARPE-19; Homo sapiens) | EC50 (NRK-49F; Rattus norvegicus) | EC50 (HT-22; Mus musculus) | concentration at which mitochondrial reactive oxygen species were significantly decreased (MLE-12 cells [1]) | concentration at which cytosolic iron ion accumulation was significantly decreased (MLE-12 cells [2]) | cytosolic iron ion accumulation (images) (H9C2 cells) | EC50 (ARPE-19) | EC50 (NRK-49F) | EC50 (HT-22) |
| --- | --- | --- | --- | --- | --- | --- | --- | --- | --- |
| O=S1(=O)CCN(Cc2cc(NC3CCOCC3)c3[nH]c(-c4ccccc4)cc3c2)CC1 [Example 1, 5-[(1,1-dioxido-4-thiomorpholinyl)methyl]-2-phenyl-N-(tetrahydro-2H-pyran-4-yl)-1H-indole-7-amine] | ≤ 0.03 µM | ≤ 0.03 µM | ≤ 0.03 µM | 0.1 µM | 0.1 µM | decrease was confirmed |  |  |  |
| CCOC(=O)c1ccc(NC2CCCCC2)c(N)c1 [Fer-1, ferrostatin-1, reference compound] |  |  |  | 0.1 µM | 1 µM |  | 0.03 to 0.1 µM | 0.03 to 0.1 µM | 0.03 to 0.1 µM |
